Drawing on patent US10752588B2 (The Broad Institute, Inc., priority 2014, dated 2020), this text covers IC50 and EC50 for 18 molecules.

Each structure is given as a SMILES string. pEC50, pIC50: −log10 of the molar value.

For experiment [1], the target named is T1, human D2R/β-arrestin (Homo sapiens (Human), UniProt P14416). Description: cell-based. The settings on record: cAMP Antagonist, CHO-K1 cell line expressing human D2R/β-arrestin; quinpirole used as agonist.
Experiment [2] deals with T1, human D2R/β-arrestin. Description: β-Arrestin agonist assay (PathHunter). The settings on record: CHO-K1 cell line expressing human D2R/β-arrestin. The class given is cell-based. In short, it runs like this: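 After compound incubation, detection reagent (Buffer:Emerald II:Galactor-Star, 19:5:1) added and luminescence or fluorescence read.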
Experiment [3] deals with T1, human D2R/β-arrestin. In words: cell-based. The settings on record: β-arrestin Antagonist, CHO-K1 cell line expressing human D2R/β-arrestin; quinpirole used as agonist.
In experiment [4] the target is T1, human D2R/β-arrestin. In words: Gi/cAMP agonist assay (Lance Ultra cAMP, Forskolin). The class given is cell-based. Conditions: CHO-K1 cell line expressing human D2R/β-arrestin. In short, it runs like this:
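Cells were plated and incubated before compounds were pin-transferred and incubated for 10 min at 37 °C. Forskolin was then added to stimulate cAMP. cAMP was detected by Lance Ultra TR-FRET using Eu-cAMP tracer and ULight-anti-cAMP antibody.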

T1 sequence (P14416 whole entry): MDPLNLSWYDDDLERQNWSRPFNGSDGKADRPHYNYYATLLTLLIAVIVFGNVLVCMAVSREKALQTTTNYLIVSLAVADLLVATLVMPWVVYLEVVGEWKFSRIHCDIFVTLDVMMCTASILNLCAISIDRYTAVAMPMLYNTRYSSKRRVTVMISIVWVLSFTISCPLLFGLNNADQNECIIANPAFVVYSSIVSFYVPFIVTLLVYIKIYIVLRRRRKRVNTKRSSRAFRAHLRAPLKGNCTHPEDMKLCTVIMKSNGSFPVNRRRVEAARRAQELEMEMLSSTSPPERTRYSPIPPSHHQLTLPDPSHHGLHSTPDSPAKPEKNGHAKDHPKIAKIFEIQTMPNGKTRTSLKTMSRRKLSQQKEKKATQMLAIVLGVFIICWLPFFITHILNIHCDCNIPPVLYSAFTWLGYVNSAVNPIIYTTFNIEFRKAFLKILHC

Take `O=C(NC(c1ccc2c(c1)OC(F)(F)O2)c1ccccn1)C1CCN(CCOc2ccccc2F)CC1` (stereo not drawn) [Compound 94, N-((2,2-difluorobenzo[d][1,3]dioxol-5-yl)(pyridin-2-yl)methyl)-1-(2-(2-fluorophenoxy)ethyl)piperidine-4-carboxamide]: the pIC50 in experiment [1] is less than 4.52; in experiment [3], 6.00 to 7.00. Also, the results for the pEC50 in experiment [2] and in experiment [4] were 6.00 to 7.00 and greater than 7.00, respectively.
As to `O=C(NC(c1ccc(F)cc1)c1ccccn1)C1CCN(CCOc2cc(F)ccc2F)CC1` (stereo not drawn) [Compound 57, 1-(2-(2,5-difluorophenoxy)ethyl)-N-((4-fluorophenyl)(pyridin-2-yl)methyl) piperidine-4-carboxamide], the figures for the negative logarithm of the IC50 (pIC50) in experiment [1] and in experiment [3] were less than 4.52 and 6.00 to 7.00, respectively. Besides, the pEC50 in experiment [2] was less than 4.52; in experiment [4], 6.00 to 7.00.
Regarding `Fc1ccccc1OCCN1CCC(CN(CC(F)(F)F)C(c2ccc(Cl)cc2)c2ccccn2)CC1` (single isomer, unassigned) [Compound 136b, N-((4-chlorophenyl)(pyridin-2-yl)methyl)-2,2,2-trifluoro-N-((1-(2-(2-fluorophenoxy)ethyl)piperidin-4-yl)methyl)ethan-1-amine], the negative logarithm of the IC50 (pIC50) in experiment [1] and in experiment [3] was greater than 7.00 in each case. The pEC50 in experiment [2] and in experiment [4] was less than 4.52 each time.
On to `CN(CC1CCN(CCOc2ccccc2F)CC1)C(c1ccc(F)cc1)c1ccccn1` (stereo not drawn) [Compound 75, N-((1-(2-(2-fluorophenoxy)ethyl)piperidin-4-yl)methyl)-1-(4-fluorophenyl)-N-methyl-1-(pyridin-2-yl)methanamine], for which the negative logarithm of the IC50 (pIC50) in experiment [1] and in experiment [3] was 6.00 to 7.00 in each case. For the same molecule, the figures for the pEC50 in experiment [2] and in experiment [4] were less than 4.52 and greater than 7.00, respectively.
With `COc1cccc(C(NC(=O)C2CCN(CCOc3ccccc3Cl)CC2)c2ccccc2F)c1` (stereo not drawn) [Compound 86, 1-(2-(2-chlorophenoxy)ethyl)-N-((2-fluorophenyl)(3-methoxyphenyl)methyl)piperidine-4-carboxamide], the negative-log IC50 (pIC50) in experiment [1] and in experiment [3] was greater than 7.00 in each case. For the same molecule, the negative-log EC50 (pEC50) in experiment [2] and in experiment [4] was less than 4.52 each time.
Turning to `FC(F)(F)c1ccccc1OCCN1CCC2(CC1)CCN(C(c1ccc(Cl)cc1)c1ccccn1)C2` (stereo not drawn) [Compound 106, 2-((4-chlorophenyl)(pyridin-2-yl)methyl)-8-(2-(2-(trifluoromethyl)phenoxy)ethyl)-2,8-diazaspiro[4.5]decane], the values for the negative logarithm of the IC50 (pIC50) in experiment [1] and in experiment [3] were 5.00 to 6.00 and 6.00 to 7.00, respectively. The pEC50 in experiment [2] was less than 4.52; in experiment [4] it was 5.00 to 6.00.
Take `c1ccc(OCCN2CCC(CNC(c3ccc4c(c3)OCO4)c3ccccn3)CC2)cc1` (stereo not drawn) [Compound 102, 1-(benzo[d][1,3]dioxol-5-yl)-N-((1-(2-phenoxyethyl)piperidin-4-yl)methyl)-1-(pyridin-2-yl)methanamine]: the pIC50 in experiment [1] and in experiment [3] was 6.00 to 7.00 throughout. Besides, the pEC50 is less than 4.52 in experiment [2] and 6.00 to 7.00 in experiment [4].
For `O=C(NC(c1ccc(Cl)cc1)c1ccccn1)C1CCN(CCOc2ccc(F)cc2F)CC1` (single isomer, unassigned) [Compound 115b, N-((4-chlorophenyl)(pyridin-2-yl)methyl)-1-(2-(2,4-difluorophenoxy)ethyl)piperidine-4-carboxamide], the negative logarithm of the IC50 (pIC50) in experiment [1] and in experiment [3] was 6.00 to 7.00 each time. The pEC50 in experiment [2] and in experiment [4] was less than 4.52 each time.
Turning to `O=C(NC(c1ccc(Cl)cc1)c1ccccn1)C1CCN(CCOc2cccc(Cl)c2)CC1` (single isomer, unassigned) [Compound 1a, 1-(2-(3-chlorophenoxy)ethyl)-N-((4-chlorophenyl)(pyridin-2-yl)methyl)piperidine-4-carboxamide], the pIC50 in experiment [1] was 6.00 to 7.00; in experiment [3], 5.00 to 6.00. In addition, the negative logarithm of the EC50 (pEC50) in experiment [2] and in experiment [4] was less than 4.52 each time.
For `O=C(NC(c1ccc(F)cc1)c1ccccn1)C1CCN(Cc2nc3ccccc3o2)CC1` (stereo not drawn) [Compound 60, 1-(benzo[d]oxazol-2-ylmethyl)-N-((4-fluorophenyl)(pyridin-2-yl)methyl)piperidine-4-carboxamide], the pIC50 in experiment [1] and in experiment [3] was less than 4.52 throughout. The pEC50 in experiment [2] and in experiment [4] was less than 4.52 in each case.
As for `CC1(C(=O)NC(c2ccc(F)cc2)c2ccccn2)CCN(CCOc2ccccc2)CC1` (stereo not drawn) [Compound 69, N-((4-fluorophenyl)(pyridin-2-yl)methyl)-4-methyl-1-(2-phenoxyethyl)piperidine-4-carboxamide], the figures for the pIC50 in experiment [1] and in experiment [3] were less than 4.52 and 6.00 to 7.00, respectively. The pEC50 is 6.00 to 7.00 in experiment [2] and greater than 7.00 in experiment [4].
Take `Fc1ccc(C(NCC2CCN(CCOc3ccccc3)CC2)c2ccccn2)cc1` (stereo not drawn) [Compound 78, 1-(4-fluorophenyl)-N-((1-(2-phenoxyethyl)piperidin-4-yl)methyl)-1-(pyridin-2-yl)methanamine]: the pIC50 in experiment [1] and in experiment [3] was 5.00 to 6.00 in each case. Besides, the figures for the pEC50 in experiment [2] and in experiment [4] were less than 4.52 and 6.00 to 7.00, respectively.
`COc1ccc(OCCN2CCC(C(=O)NC(c3ccc(Cl)cc3)c3ccccn3)CC2)cc1` (stereo not drawn) [Compound 13, N-((4-chlorophenyl)(pyridin-2-yl)methyl)-1-(2-(4-methoxyphenoxy)ethyl) piperidine-4-carboxamide]: the negative logarithm of the IC50 (pIC50) is less than 4.52 in experiment [1] and 5.00 to 6.00 in experiment [3]. Also, the negative logarithm of the EC50 (pEC50) in experiment [2] is less than 4.52; in experiment [4], 5.00 to 6.00.
Take `O=C(NC(c1ccc(Cl)cc1)c1ccc(F)cn1)C1CCN(CCOc2ccccc2F)CC1` (single isomer, unassigned) [Compound 92a, N-((4-chlorophenyl)(5-fluoropyridin-2-yl)methyl)-1-(2-(2-fluorophenoxy)ethyl)piperidine-4-carboxamide]: the pIC50 in experiment [1] and in experiment [3] was 6.00 to 7.00 throughout. Also, the results for the pEC50 in experiment [2] and in experiment [4] were less than 4.52 and 6.00 to 7.00, respectively.
As for `COc1ccc(C(NC(=O)C2CCN(CCOc3ccccc3)CC2)c2ccc(Cl)cc2)cc1` (stereo not drawn) [Compound 44], the pIC50 was 4.52 to 5.00 in experiment [1] and 5.00 to 6.00 in experiment [3]. Besides, the negative logarithm of the EC50 (pEC50) in experiment [2] and in experiment [4] was less than 4.52 throughout.
In the case of `Fc1ccccc1OCCN1CCC(CNC(c2ccc(Cl)cc2)c2ccccn2)CC1` (stereo not drawn) [Compound 121, 1-(4-chlorophenyl)-N-((1-(2-(2-fluorophenoxy)ethyl)piperidin-4-yl)methyl)-1-(pyridin-2-yl) methanamine], the pIC50 in experiment [1] and in experiment [3] was 6.00 to 7.00 throughout. The pEC50 in experiment [2] and in experiment [4] was less than 4.52 each time.
Consider `O=C(NC(c1ccc(Cl)cc1)c1ccncc1F)C1CCN(CCOc2ccccc2F)CC1` (stereo not drawn) [Compound 91, N-((4-chlorophenyl)(3-fluoropyridin-4-yl)methyl)-1-(2-(2-fluorophenoxy)ethyl)piperidine-4-carboxamide], for which the negative logarithm of the IC50 (pIC50) in experiment [1] and in experiment [3] was 6.00 to 7.00 each time. The negative-log EC50 (pEC50) is less than 4.52 in experiment [2] and 6.00 to 7.00 in experiment [4].
For `COc1cccc(C(c2ccccn2)N(C)CC2CCN(CCOc3ccccc3)CC2)c1` (single isomer, unassigned) [Compound 76a, 1-(3-methoxyphenyl)-N-methyl-N-((1-(2-phenoxyethyl)piperidin-4-yl)methyl)-1-(pyridin-2-yl)methanamine], the pIC50 was 6.00 to 7.00 in experiment [1] and 5.00 to 6.00 in experiment [3]. The negative logarithm of the EC50 (pEC50) in experiment [2] is less than 4.52; in experiment [4], 6.00 to 7.00.
